The source of these data is patent publication US10975068B2, “6-aminopyridin-3-yl thiazoles as modulators of RORγT” (Janssen Pharmaceutica NV, priority 2016, dated 2021).

In experiment [1] the target is human RORγt ligand binding domain (RORγt LBD) (Homo sapiens (Human), UniProt P51449). Description: RORγt ThermoFluor® assay (thermal shift binding). The following applies: read-out: ThermoFluor® Assay, Kd. In outline: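 Binding was inferred from thermal stabilisation (ΔTm) of the E. coli-expressed RORγt LBD (0.065 mg/mL), monitored by 1,8-ANS (60 μM) emission at 500 nm during a 1 °C/min ramp. Buffer was Hepes 100 mM pH 7.0 with NaCl, GSH and Tween-20.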
On the technique in general: Differential scanning fluorimetry follows unfolding on heating by fluorescence.

The target in experiment [2] is full-length human RORγt (Homo sapiens (Human), UniProt P51449). The experiment can be described thus: RORγt (full-length human) reporter assay, Conditions B or C. It is filed as cell-based. The following applies: for inhibition at 3 µM: at 3 μM compound concentration, read-out: RORγt (FL) Reporter Assay B or C, % inhibition; for IC50: read-out: RORγt (FL) Reporter Assay B or C, IC50; for RORγt (FL) Reporter Assay B or C, % inhibition (value marked *): marked *: footnote not given; for RORγt (FL) Reporter Assay B or C, % inhibition (value marked ***): marked ***: footnote not given. The essentials:
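Readout is dual luciferase: firefly (GAL4-driven) normalized to DMSO-only and saturating-reference controls, then to CMV-Renilla. Full-length human RORγt fused to GAL4-DBD was transiently expressed in HEK293T; compound exposure ran overnight (16-20 h) starting 4-6 h after transfection, final FBS 1.3%, DMSO 0.1%.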

The structures appear in SMILES notation. Like-named read-outs stand apart in the source and are kept apart here.

A word on the Kd: it is the concentration at which binding is half-saturated. The term inhibition denotes the relative decrease from the control value, in per cent. The term IC50 denotes the point on the concentration scale where inhibition reaches its midpoint.

Sequence of human RORγt ligand binding domain (RORγt LBD) (P51449 other isoform, or with tags, fused parts or gaps): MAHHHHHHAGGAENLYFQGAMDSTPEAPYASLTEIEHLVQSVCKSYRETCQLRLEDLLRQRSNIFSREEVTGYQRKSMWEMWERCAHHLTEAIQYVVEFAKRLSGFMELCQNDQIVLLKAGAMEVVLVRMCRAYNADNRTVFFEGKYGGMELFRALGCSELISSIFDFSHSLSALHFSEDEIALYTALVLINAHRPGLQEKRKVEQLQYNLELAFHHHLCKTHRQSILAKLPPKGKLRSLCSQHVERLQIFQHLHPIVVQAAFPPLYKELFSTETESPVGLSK
Sequence of full-length human RORγt (P51449 other isoform, or with tags, fused parts or gaps): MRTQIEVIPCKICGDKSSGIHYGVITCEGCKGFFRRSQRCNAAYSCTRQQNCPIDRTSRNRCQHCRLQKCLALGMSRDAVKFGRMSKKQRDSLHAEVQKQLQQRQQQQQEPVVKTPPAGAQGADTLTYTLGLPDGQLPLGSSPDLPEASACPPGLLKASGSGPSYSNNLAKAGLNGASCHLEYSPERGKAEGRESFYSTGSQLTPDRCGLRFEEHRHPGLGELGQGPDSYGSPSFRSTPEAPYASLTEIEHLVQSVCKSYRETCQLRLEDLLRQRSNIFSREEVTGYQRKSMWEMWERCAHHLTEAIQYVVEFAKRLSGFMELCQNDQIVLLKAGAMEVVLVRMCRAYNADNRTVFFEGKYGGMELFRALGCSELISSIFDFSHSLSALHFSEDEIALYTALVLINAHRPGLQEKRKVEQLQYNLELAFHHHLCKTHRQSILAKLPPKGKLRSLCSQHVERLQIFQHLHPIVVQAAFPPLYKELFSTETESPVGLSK

In the case of `CC[C@H](Nc1cc(C(F)F)c(-c2sc(C(=O)N[C@H]3CC[C@H]3O)nc2C(=O)N2CCC[C@@H]2C)cn1)C(F)(F)F` (relative stereo) [Example 380, 5-(4-(Difluoromethyl)-6-(((S)-1,1,1-trifluorobutan-2-yl)amino)pyridin-3-yl)-N-((1S*,2R*)-2-hydroxycyclobutyl)-4-((S)-2-methylpyrrolidine-1-carbonyl)thiazole-2-carboxamide], in experiment [1], the Kd turned out to be 1.6 nM. Further, in experiment [2], the inhibition at 3 µM is 108% and the IC50 came out at 18 nM.

Take `C[C@H]1CCCN1C(=O)c1nc(C(=O)NCC(C)(C)O)sc1-c1cnc(NC(C2CC2)C2CC2)cc1C(F)(F)F` [Example 139, (S)-5-(6-((Dicyclopropylmethyl)amino)-4-(trifluoromethyl)pyridin-3-yl)-N-(2-hydroxy-2-methylpropyl)-4-(2-methylpyrrolidine-1-carbonyl)thiazole-2-carboxamide]: the Kd in experiment [1] turned out to be 1.1 nM. Also, in experiment [2] (Conditions B or C), the “RORγt (FL) Reporter Assay B or C, % inhibition (value marked *)” value is listed as 107* % and the concentration for half-maximal inhibition (IC50) is 12 nM.

Consider `C[C@@H](Nc1cc(C(F)(F)F)c(-c2sc(C(=O)NCC(C)(C)O)nc2C(=O)N2CCC[C@@H]2C)cn1)C1CCC1` (relative stereo) [Example 176, 5-(6-(((R*)-1-Cyclobutylethyl)amino)-4-(trifluoromethyl)pyridine-3-yl)-N-(2-hydroxy-2-methylpropyl)-4-((S)-2-methylpyrrolidine-1-carbonyl)thiazole-2-carboxamide], for which the Kd in experiment [1] came out at 1.3 nM. In addition, in experiment [2] (Conditions B or C), the “RORγt (FL) Reporter Assay B or C, % inhibition (value marked ***)” value is reported as 115*** % and the concentration for half-maximal inhibition (IC50) turned out to be 15 nM.

As for `C[C@H](Nc1cc(C(F)(F)F)c(-c2sc(C(=O)NCC(C)(C)O)nc2C(=O)N2CCC[C@@H]2C)cn1)C1CCC1` (relative stereo) [Example 175, 5-(6-(((S*)-1-Cyclobutylethyl)amino)-4-(trifluoromethyl)pyridine-3-yl)-N-(2-hydroxy-2-methylpropyl)-4-(((S)-2-methylpyrrolidine-1-carbonyl)thiazole-2-carboxamide], in experiment [1], the Kd is 5.8 nM. In addition, in experiment [2] (Conditions B or C), the “RORγt (FL) Reporter Assay B or C, % inhibition (value marked ***)” value was 119*** % and the IC50 turned out to be 44 nM.

Consider `C[C@H]1CCCN1C(=O)c1nc(C(=O)N[C@H](C)C(C)(C)O)sc1-c1cnc(NC2(C)CCC2)cc1C(F)F` [Example 321, 5-(4-(Difluoromethyl)-6-((1-methylcyclobutyl)amino)pyridin-3-yl)-N—((R)-3-hydroxy-3-methylbutan-2-yl)-4-((S)-2-methylpyrrolidine-1-carbonyl)thiazole-2-carboxamide], for which, in experiment [1], the Kd was found to be 5.2 nM. For the same compound, in experiment [2], the inhibition at 3 µM amounted to 87% and the IC50 worked out at 100 nM.

Consider `C[C@H]1CCCCN1C(=O)c1nc(C(=O)NCC(C)(C)O)sc1-c1cnc(NC(C)(C)C2CC2)cc1C(F)F` [Example 88, (S)-5-(6-((2-Cyclopropylpropan-2-yl)amino)-4-(difluoromethyl)pyridin-3-yl)-N-(2-hydroxy-2-methylpropyl)-4-(2-methylpiperidine-1-carbonyl)thiazole-2-carboxamide], for which, in experiment [1], the Kd came out at 0.19 nM. Also, in experiment [2] (Conditions B or C), the “RORγt (FL) Reporter Assay B or C, % inhibition (value marked *)” value was 138* % and the IC50 is 10 nM.

Consider `O=C(N[C@H]1CCC[C@@H]1O)c1nc(C(=O)N2C3CCC2CC3)c(-c2cnc(N[C@@H](C3CC3)C(F)(F)F)cc2C(F)F)s1` [Example 451, 4-(7-Azabicyclo[2.2.1]heptane-7-carbonyl)-5-[6-[[(1S)-1-cyclopropyl-2,2,2-trifluoro-ethyl]amino]-4-(difluoromethyl)-3-pyridyl]-N-[(1S,2S)-2-hydroxycyclopentyl]thiazole-2-carboxamide], for which, in experiment [1], the Kd turned out to be 0.29 nM. Further, in experiment [2], the inhibition at 3 µM came to 99% and the IC50 is 290 nM.
